These results are taken from US9975907B2, “Pyrimidinones as PI3K inhibitors” (Incyte Corporation, priority 2009, dated 2018).

Where a name gives a salt, the structure may show the parent alone.

What is called IC50 is the concentration that inhibits the measured activity by half. Read a low IC50 as greater potency.

PI3Kδ (p110δ/p85α), sequence (O00329 whole entry, species assumed): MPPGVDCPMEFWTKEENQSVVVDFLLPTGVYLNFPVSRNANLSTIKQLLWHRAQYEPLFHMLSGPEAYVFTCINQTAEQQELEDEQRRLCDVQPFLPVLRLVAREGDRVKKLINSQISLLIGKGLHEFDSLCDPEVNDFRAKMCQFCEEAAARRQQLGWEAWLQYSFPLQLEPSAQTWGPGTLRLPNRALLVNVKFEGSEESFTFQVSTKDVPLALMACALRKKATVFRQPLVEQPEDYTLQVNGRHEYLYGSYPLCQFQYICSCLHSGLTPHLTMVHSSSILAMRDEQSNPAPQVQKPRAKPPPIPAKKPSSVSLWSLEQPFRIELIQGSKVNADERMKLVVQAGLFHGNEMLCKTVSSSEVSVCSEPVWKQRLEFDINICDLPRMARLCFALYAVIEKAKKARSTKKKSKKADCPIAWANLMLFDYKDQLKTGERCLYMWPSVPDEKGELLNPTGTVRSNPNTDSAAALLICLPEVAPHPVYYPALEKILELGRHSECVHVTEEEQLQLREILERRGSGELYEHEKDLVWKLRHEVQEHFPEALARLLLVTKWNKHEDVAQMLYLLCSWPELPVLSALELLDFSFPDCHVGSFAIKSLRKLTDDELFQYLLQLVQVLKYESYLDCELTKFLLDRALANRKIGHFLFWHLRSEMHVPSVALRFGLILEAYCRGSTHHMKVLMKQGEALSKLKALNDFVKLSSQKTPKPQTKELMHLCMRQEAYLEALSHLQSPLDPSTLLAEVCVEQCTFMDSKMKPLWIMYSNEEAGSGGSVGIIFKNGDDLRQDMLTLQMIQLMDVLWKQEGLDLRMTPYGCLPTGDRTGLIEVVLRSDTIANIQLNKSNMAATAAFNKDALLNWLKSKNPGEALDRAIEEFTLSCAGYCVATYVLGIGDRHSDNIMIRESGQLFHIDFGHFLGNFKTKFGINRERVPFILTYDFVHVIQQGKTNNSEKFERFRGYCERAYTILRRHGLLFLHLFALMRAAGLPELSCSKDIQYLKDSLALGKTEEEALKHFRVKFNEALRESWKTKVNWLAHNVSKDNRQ
PI3Kδ (p110δ/p85α), sequence (P27986 whole entry partner, species assumed): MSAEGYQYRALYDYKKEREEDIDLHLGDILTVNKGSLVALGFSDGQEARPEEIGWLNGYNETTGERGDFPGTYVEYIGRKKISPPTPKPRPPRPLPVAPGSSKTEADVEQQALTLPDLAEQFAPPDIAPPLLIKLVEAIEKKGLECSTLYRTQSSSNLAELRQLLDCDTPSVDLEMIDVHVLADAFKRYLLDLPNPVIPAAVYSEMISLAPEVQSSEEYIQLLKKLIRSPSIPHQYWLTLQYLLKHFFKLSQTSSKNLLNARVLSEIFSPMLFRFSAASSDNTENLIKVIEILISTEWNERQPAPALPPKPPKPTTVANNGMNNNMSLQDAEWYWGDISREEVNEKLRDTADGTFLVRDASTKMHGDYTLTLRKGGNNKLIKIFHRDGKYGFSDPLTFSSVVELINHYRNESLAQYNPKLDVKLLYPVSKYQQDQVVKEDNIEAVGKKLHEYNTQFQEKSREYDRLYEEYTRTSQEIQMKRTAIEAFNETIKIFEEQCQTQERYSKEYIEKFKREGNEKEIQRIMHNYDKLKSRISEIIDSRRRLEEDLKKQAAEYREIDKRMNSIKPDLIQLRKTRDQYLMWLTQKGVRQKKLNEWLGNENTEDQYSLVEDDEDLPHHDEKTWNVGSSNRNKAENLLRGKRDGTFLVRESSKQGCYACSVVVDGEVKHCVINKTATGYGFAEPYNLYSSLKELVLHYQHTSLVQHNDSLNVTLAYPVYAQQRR

This test has as its target PI3Kδ (p110δ/p85α) (Homo sapiens (Human), UniProt O00329). Nature of the test: PI3Kδ Scintillation Proximity Assay (Assay A3). In kind it is biochemical. The note with it: column b, Assay A3 (SPA), 20 μM ATP. An excerpt: [γ-^33P]ATP (10 mCi/mL) was purchased from Perkin-Elmer (Waltham, Mass.). Lipid kinase substrate, D-myo-Phosphatidylinositol 4,5-bisphosphate (PtdIns(4,5)P2)D (+)-sn-1,2-di-O-octanoylglyceryl, 3-O-phospho linked (PIP2), CAS 204858-53-7, was purchased from Echelon Biosciences (Salt Lake City, Utah). PI3Kδ (p110δ/p85α) was purchased from Millipore (Bedford, Mass.). ATP, MgCl2, DTT, EDTA, MOPS and CHAPS were purchased from Sigma-Aldrich (St. Louis, Mo.). Wheat Germ Agglutinin (WGA) YSi SPA Scintillation Beads was purchased from GE healthcare life sciences (Piscataway, N.J.).
The kinase reaction was conducted in polystyrene 384-well matrix white plate from Thermo Fisher Scientific in a final volume of 25 μL. Inhibitors were first diluted serially in DMSO and added to the plate wells before the addition of other reaction components. The final concentration of DMSO in the assay was 0.5%. The PI3K assays were carried out at room temperature in 20 mM MOPS, pH 6.7, 10 mM MgCl2, 5 mM DTT and CHAPS 0.03%. Reactions were initiated by the addition of ATP, the final reaction mixture consisted of 20 μM PIP2, 20 μM ATP, 0.2 μCi [γ-^33P] ATP, 4 nM PI3Kδ. Reactions were incubated for 210 min and terminated by the addition of 40 μL SPA beads suspended in quench buffer: 150 mM potassium phosphate pH 8.0, 20% glycerol. 25 mM EDTA, 400 μM ATP. The final concentration of SPA beads was 1.0 mg/mL. After the plate sealing, plates were shaken overnight at room temperature and centrifuged at 1800 rpm for 10 minutes, the radioactivity of the product was determined by scintillation counting on Topcount (Perkin-Elmer). IC50 determination was performed by fitting the curve of percent control activity versus the log of the inhibitor concentration using the GraphPad Prism 3.0 software.
In general terms: In a scintillation proximity assay essentially only radioactivity close to the scintillant gives light.
Compound `Cc1csc2nc(C(C)Nc3ncnc4[nH]ccc34)c(-c3cc(F)cc(F)c3)c(=O)n12` (stereo not drawn) [Example 17, 6-(3,5-difluorophenyl)-3-methyl-7-[1-(7H-pyrrolo[2,3-d]pyrimidin-4-ylamino)ethyl]-5H-[1,3]thiazolo[3,2-a]pyrimidin-5-one] registered an IC50 of 100 to 500 nM. As for `Cc1csc2nc(C(C)Nc3nc(F)nc4[nH]cnc34)c(-c3cc(F)cc(F)c3)c(=O)n12` (stereo not drawn) [Example 18, 6-(3,5-difluorophenyl)-7-{1-[(2-fluoro-9H-purin-6-yl)amino]ethyl}-3-methyl-5H-[1,3]thiazolo[3,2-a]pyrimidin-5-one], the figure is 100 to 500 nM; as for `Cc1csc2nc(C(C)Nc3ncnc4[nH]cnc34)c(-c3ccncc3)c(=O)n12` (stereo not drawn) [Example 19, 3-methyl-7-[1-(9H-purin-6-ylamino)ethyl]-6-pyridin-4-yl-5H-[1,3]thiazolo[3,2-a]pyrimidin-5-one], 100 to 500 nM.

In turn, `Cc1csc2nc(C(C)Nc3ncnc4[nH]cnc34)c(-c3nccs3)c(=O)n12` (stereo not drawn) [Example 20, 3-methyl-7-[1-(9H-purin-6-ylamino)ethyl]-6-(1,3-thiazol-2-yl)-5H-[1,3]thiazolo[3,2-a]pyrimidin-5-one trifluoroacetic acid salt] displayed a concentration for half-maximal inhibition (IC50) of less than 50 nM. The compound `Cc1csc2nc(C(C)Nc3ncnc4[nH]cnc34)c(-c3cscn3)c(=O)n12` (stereo not drawn) [Example 21, 3-methyl-7-[1-(9H-purin-6-ylamino)ethyl]-6-(1,3-thiazol-4-yl)-5H-[1,3]thiazolo[3,2-a]pyrimidin-5-one trifluoroacetic acid salt] yielded an IC50 of less than 50 nM.

The compound `Cc1csc2nc(C(C)Nc3ncnc4[nH]cnc34)c(-c3ccc(F)cc3)c(=O)n12` (stereo not drawn) [Example 22, 6-(4-fluorophenyl)-3-methyl-7-[1-(9H-purin-6-ylamino)ethyl]-5H-[1,3]thiazolo[3,2-a]pyrimidin-5-one trifluoroacetic acid salt] had an IC50 of 50 to 100 nM. As for `CC(Nc1nc(N)nc2[nH]cnc12)c1nc2sccn2c(=O)c1-c1cc(F)cc(F)c1` (stereo not drawn) [Example 24, 7-{1-[(2-amino-9H-purin-6-yl)amino]ethyl}-6-(3,5-difluorophenyl)-5H-[1,3]thiazolo[3,2-a]pyrimidin-5-one], the figure is more than 500 nM; as for `CC(Nc1ncnc2[nH]cnc12)c1nc2sccn2c(=O)c1-c1cc(F)cc(F)c1` (stereo not drawn) [Example 25, 6-(3,5-difluorophenyl)-7-[1-(9H-purin-6-ylamino)ethyl]-5H-[1,3]thiazolo[3,2-a]pyrimidin-5-one], more than 500 nM. For the compound `CC(Nc1nc(N)nc2[nH]cnc12)c1nc2sccn2c(=O)c1-c1cccc(F)c1` (stereo not drawn) [Example 26, 7-{1-[(2-amino-9H-purin-6-yl)amino]ethyl}-6-(3-fluorophenyl)-5H-[1,3]thiazolo[3,2-a]pyrimidin-5-one], the half-inhibitory concentration (IC50) fell in the range of 100 to 500 nM. In the case of `CC(Nc1nc(N)nc2[nH]cnc12)c1nc2sccn2c(=O)c1-c1ccccc1` (stereo not drawn) [Example 27, 7-{1-[(2-amino-9H-purin-6-yl)amino]ethyl}-6-phenyl-5H-[1,3]thiazolo[3,2-a]pyrimidin-5-one], the half-inhibitory concentration (IC50) lay within 100 to 500 nM. For `CC(Nc1ncnc2[nH]cnc12)c1nc2sccn2c(=O)c1-c1cccc(F)c1` (stereo not drawn) [Example 28, 6-(3-fluorophenyl)-7-[1-(9H-purin-6-ylamino)ethyl]-5H-[1,3]thiazolo[3,2-a]pyrimidin-5-one], the IC50 is more than 500 nM. The compound `CC(Nc1ncnc2[nH]cnc12)c1nc2sccn2c(=O)c1-c1ccccc1` (stereo not drawn) [Example 29, 6-phenyl-7-[1-(9H-purin-6-ylamino)ethyl]-5H-[1,3]thiazolo[3,2-a]pyrimidin-5-one] showed an IC50 of more than 500 nM. As for `Cc1ccc(-c2c(C(C)Nc3ncnc4[nH]cnc34)nc3scc(C)n3c2=O)cc1` (stereo not drawn) [Example 31, 3-methyl-6-(4-methylphenyl)-7-[1-(9H-purin-6-ylamino)ethyl]-5H-[1,3]thiazolo[3,2-a]pyrimidin-5-one trifluoroacetic acid salt], the figure is 100 to 500 nM.

The compound `Cc1csc2nc(C(C)Nc3nc(N)nc4[nH]cnc34)c(-c3cccc(Cl)c3)c(=O)n12` (stereo not drawn) [Example 32, 7-{1-[(2-amino-9H-purin-6-yl)amino]ethyl}-6-(3-chlorophenyl)-3-methyl-5H-[1,3]thiazolo[3,2-a]pyrimidin-5-one trifluoroacetic acid salt] yielded an IC50 of 50 to 100 nM. As for `Cc1csc2nc(C(C)Nc3nc(N)nc4[nH]cnc34)c(-c3ccccc3F)c(=O)n12` (stereo not drawn) [Example 33, 7-{1-[(2-amino-9H-purin-6-yl)amino]ethyl}-6-(2-fluorophenyl)-3-methyl-5H-[1,3]thiazolo[3,2-a]pyrimidin-5-one trifluoroacetic acid salt], the figure is less than 50 nM. As for `Cc1csc2nc(C(C)Nc3nc(N)nc4[nH]cnc34)c(-c3cccc(F)c3F)c(=O)n12` (stereo not drawn) [Example 34, 7-{1-[(2-amino-9H-purin-6-yl)amino]ethyl}-6-(2,3-difluorophenyl)-3-methyl-5H-[1,3]thiazolo[3,2-a]pyrimidin-5-one trifluoroacetic acid salt], the figure is less than 50 nM; as for `Cc1csc2nc(C(C)Nc3nc(N)nc4[nH]cnc34)c(-c3cc(F)cc(Cl)c3)c(=O)n12` (stereo not drawn) [Example 35, 7-{1-[(2-amino-9H-purin-6-yl)amino]ethyl}-6-(3-chloro-5-fluorophenyl)-3-methyl-5H-[1,3]thiazolo[3,2-a]pyrimidin-5-one trifluoroacetic acid salt], 50 to 100 nM.

In the case of `Cc1csc2nc(C(C)Nc3ncnc4[nH]cnc34)c(-c3cccc(Cl)c3)c(=O)n12` (stereo not drawn) [Example 36, 6-(3-chlorophenyl)-3-methyl-7-[1-(9H-purin-6-ylamino)ethyl]-5H-[1,3]thiazolo[3,2-a]pyrimidin-5-one trifluoroacetic acid salt], the IC50 is 100 to 500 nM. On to `Cc1csc2nc(C(C)Nc3ncnc4[nH]cnc34)c(-c3cc(F)cc(Cl)c3)c(=O)n12` (stereo not drawn) [Example 37, 6-(3-chloro-5-fluorophenyl)-3-methyl-7-[1-(9H-purin-6-ylamino)ethyl]-5H-[1,3]thiazolo[3,2-a]pyrimidin-5-one trifluoroacetic acid salt], for which the IC50 lay within 100 to 500 nM. As for `Cc1csc2nc(C(C)Nc3nc(N)nc4[nH]cnc34)c(-c3cncc(F)c3)c(=O)n12` (stereo not drawn) [Example 38, 7-{1-[(2-amino-9H-purin-6-yl)amino]ethyl}-6-(5-fluoropyridin-3-yl)-3-methyl-5H-[1,3]thiazolo[3,2-a]pyrimidin-5-one trifluoroacetic acid salt], the figure is 50 to 100 nM. The compound `Cc1csc2nc(C(C)Nc3ncnc4[nH]cnc34)c(-c3ccccc3F)c(=O)n12` (stereo not drawn) [Example 40, 6-(2-fluorophenyl)-3-methyl-7-[1-(9H-purin-6-ylamino)ethyl]-5H-[1,3]thiazolo[3,2-a]pyrimidin-5-one trifluoroacetic acid salt] showed an IC50 of less than 50 nM. Regarding `Cc1csc2nc(C(C)Nc3ncnc4[nH]cnc34)c(-c3cccc(F)c3F)c(=O)n12` (stereo not drawn) [Example 41, 6-(2,3-difluorophenyl)-3-methyl-7-[1-(9H-purin-6-ylamino)ethyl]-5H-[1,3]thiazolo[3,2-a]pyrimidin-5-one trifluoroacetic acid salt], the IC50 lay within 50 to 100 nM. As for `Cc1csc2nc(C(C)Nc3ncnc4[nH]cnc34)c(-c3cncc(F)c3)c(=O)n12` (stereo not drawn) [Example 42, 6-(5-fluoropyridin-3-yl)-3-methyl-7-[1-(9H-purin-6-ylamino)ethyl]-5H-[1,3]thiazolo[3,2-a]pyrimidin-5-one trifluoroacetic acid salt], the figure is 100 to 500 nM; as for `Cc1csc2nc(C(C)Nc3ncnc4[nH]cnc34)c(-c3cc(F)ccc3F)c(=O)n12` (stereo not drawn) [Example 45, 6-(2,5-difluorophenyl)-3-methyl-7-[1-(9H-purin-6-ylamino)ethyl]-5H-[1,3]thiazolo[3,2-a]pyrimidin-5-one trifluoroacetic acid salt], less than 50 nM; as for `Cc1csc2nc([C@H](C)Nc3nc(O)nc4[nH]cnc34)c(-c3cccc(F)c3)c(=O)n12` [Example 47, 6-(3-Fluorophenyl)-7-{(1S)-1-[(2-hydroxy-9H-purin-6-yl)amino]ethyl}-3-methyl-5H-[1,3]thiazolo[3,2-a]pyrimidin-5-one], 100 to 500 nM. As for `CC(Nc1ncnc2[nH]cnc12)c1nc2scc(C(F)(F)F)n2c(=O)c1-c1cccc(F)c1` (stereo not drawn) [Example 48, 6-(3-Fluorophenyl)-7-[1-(9H-purin-6-ylamino)ethyl]-3-(trifluoromethyl)-5H-[1,3]thiazolo[3,2-a]pyrimidin-5-one], the figure is 50 to 100 nM. On to `Cc1cccc2nc(C(C)Nc3ncnc4[nH]cnc34)c(-c3ccccc3)c(=O)n12` (stereo not drawn) [Example 49, 6-Methyl-3-phenyl-2-[1-(9H-purin-6-ylamino)ethyl]-4H-pyrido[1,2-a]pyrimidin-4-one trifluoroacetic acid salt], for which the IC50 was less than 50 nM.
